# Test results: patent US7368578B2, “Five-membered heterocyclic compounds” (Takeda Pharmaceutical Company Limited, priority 2002, dated 2008)
row,melting point [°C],SMILES
1,111 to 112,"COc1cc(COc2nn(-c3ccccc3)cc2CC2SC(=O)N(C)C2=O)ccc1OCc1nc(-c2ccco2)oc1C (stereo not shown) [Example 106, 5-({3-[(4-{[2-(2-furyl)-5-methyl-1,3-oxazol-4-yl]methoxy}-3-methoxybenzyl)oxy]-1-phenyl-1H-pyrazol-4-yl}methyl)-3-methyl-1,3-thiazolidine-2,4-dione]"
2,153 to 154,"COc1cc(COc2nn(-c3ccccc3)cc2-c2cnco2)ccc1OCc1nc(-c2ccco2)oc1C [Example 107, 2-(2-furyl)-4-{[2-methoxy-4-({[4-(1,3-oxazol-5-yl)-1-phenyl-1H-pyrazol-3-yl]oxy}methyl)phenoxy]methyl}-5-methyl-1,3-oxazole]"
3,120 to 121,"COc1cc(COc2nn(-c3ccccc3)cc2/C=C/CO)ccc1OCc1nc(-c2ccco2)oc1C [Example 108, (2E)-3-{3-[(4-([2-(2-furyl)-5-methyl-1,3-oxazol-4-yl]methoxy}-3-methoxybenzyl)oxy]-1-phenyl-1H-pyrazol-4-yl}-2-propen-1-ol]"
4,134 to 135,"COc1cc(COc2nn(-c3ccccc3)cc2/C=C/C=O)ccc1OCc1nc(-c2ccco2)oc1C [Example 109, (2E)-3-{3-[(4-{[2-(2-furyl)-5-methyl-1,3-oxazol-4-yl]methoxy}-3-methoxybenzyl)oxy]-1-phenyl-1H-pyrazol-4-yl}-2-propenaldehyde]"
5,115 to 116,"C=CC(c1cn(-c2ccccc2)nc1OCc1ccc(OCc2nc(-c3ccco3)oc2C)c(OC)c1)n1cncn1 (stereo not shown) [Example 110, 1-(1-{3-[(4-{[2-(2-furyl)-5-methyl-1,3-oxazol-4-yl]methoxy}-3-methoxybenzyl)oxy]-1-phenyl-1H-pyrazol-4-yl}-2-propenyl)-1H-1,2,4-triazole]"
6,136 to 137,"COc1cc(COc2nn(-c3ccccc3)cc2/C=C/c2cscn2)ccc1OCc1nc(-c2ccco2)oc1C [Example 111 (E form), 2-(2-furyl)-4-({2-methoxy-4-[({1-phenyl-4-[(E)-2-(1,3-thiazol-4-yl)ethenyl]-1H-pyrazol-3-yl}oxy)methyl]phenoxy)methyl)-5-methyl-1,3-oxazole]"
7,137 to 138,"COc1cc(COc2nn(-c3ccccc3)cc2/C=C\c2cscn2)ccc1OCc1nc(-c2ccco2)oc1C [Example 111 (Z form), 2-(2-furyl)-4-({2-methoxy-4-[({1-phenyl-4-[(Z)-2-(1,3-thiazol-4-yl)ethenyl]-1H-pyrazol-3-yl}oxy)methyl]phenoxy}methyl)-5-methyl-1,3-oxazole]"
8,135 to 136,"COc1cc(COc2nn(-c3ccccc3)cc2/C=C/c2ccccn2)ccc1OCc1nc(-c2ccco2)oc1C [Example 113, 2-((E)-2-{3-[(4-{[2-(2-furyl)-5-methyl-1,3-oxazol-4-yl]methoxy}-3-methoxybenzyl)oxy]-1-phenyl-1H-pyrazol-4-yl}ethenyl)pyridine]"
9,137 to 138,"COc1cc(COc2nn(-c3ccccc3)cc2/C=C/c2cnco2)ccc1OCc1nc(-c2ccco2)oc1C [Example 114, 2-(2-furyl)-4-({2-methoxy-4-[({4-[(E)-2-(1,3-oxazol-5-yl)ethenyl]-1-phenyl-1H-pyrazol-3-yl}oxy)methyl]phenoxy}methyl)-5-methyl-1,3-oxazole]"
10,172 to 173,"CCCc1nnc(/C=C/c2cn(-c3ccccc3)nc2OCc2ccc(OCc3nc(-c4ccco4)oc3C)c(OC)c2)o1 [Example 115, 2-((E)-2-{3-[(4-{[2-(2-furyl)-5-methyl-1,3-oxazol-4-yl]methoxy}-3-methoxybenzyl)oxy]-1-phenyl-1H-pyrazol-4-yl}ethenyl)-5-propyl-1,3,4-oxadiazole]"
11,162 to 163,"COc1cc(COc2nn(-c3ccccc3)cc2/C=C/c2nnco2)ccc1OCc1nc(-c2ccco2)oc1C [Example 118, 2-((E)-2-{3-[(4-{[2-(2-furyl)-5-methyl-1,3-oxazol-4-yl]methoxy}-3-methoxybenzyl)oxy]-1-phenyl-1H-pyrazol-4-yl}ethenyl)-1,3,4-oxadiazole]"
12,127 to 128,"COc1cc(COc2nn(-c3ccccc3)cc2CCc2cscn2)ccc1OCc1nc(-c2ccco2)oc1C [Example 119, 2-(2-furyl)-4-({2-methoxy-4-[({1-phenyl-4-[2-(1,3-thiazol-4-yl)ethyl]-1H-pyrazol-3-yl}oxy)methyl]phenoxy}methyl)-5-methyl-1,3-oxazole]"
13,102 to 103,"CCCc1nnc(Cc2cn(-c3ccccc3)nc2OCc2ccc(OCc3nc(-c4ccco4)oc3C)c(OC)c2)o1 [Example 120, 2-({3-[(4-{[2-(2-furyl)-5-methyl-1,3-oxazol-4-yl]methoxy}-3-methoxybenzyl)oxy]-1-phenyl-1H-pyrazol-4-yl}methyl)-5-propyl-1,3,4-oxadiazole]"
14,95 to 96,"COc1cc(COc2nn(-c3ccccc3)cc2CC2=NCCO2)ccc1OCc1nc(-c2ccco2)oc1C [Example 121, 4-{[4-({[4-(4,5-dihydro-1,3-oxazol-2-ylmethyl)-1-phenyl-1H-pyrazol-3-yl]oxy}methyl)-2-methoxyphenoxy]methyl}-2-(2-furyl)-5-methyl-1,3-oxazole]"
15,149 to 150,"COc1cc(COc2nn(-c3ccccc3)cc2Cn2cncn2)ccc1OCc1nc(-c2ccco2)oc1C [Example 122, 1-({3-[(4-{[2-(2-furyl)-5-methyl-1,3-oxazol-4-yl]methoxy}-3-methoxybenzyl)oxy]-1-phenyl-1H-pyrazol-4-yl}methyl)-1H-1,2,4-triazole]"
16,85 to 86,"CCCc1nnc(CCc2cc(OCc3ccc(OCc4nc(-c5ccccc5)oc4C)c(OC)c3)nn2-c2ccccc2)o1 [Example 123, 2-{2-[3-({3-methoxy-4-[(5-methyl-2-phenyl-1,3-oxazol-4-yl)methoxy]benzyl}oxy)-1-phenyl-1H-pyrazol-5-yl]ethyl}-5-propyl-1,3,4-oxadiazole]"
17,192 to 193,"CCCc1noc(/C=C/c2cn(-c3ccccc3)nc2OCc2ccc(OCc3nc(-c4ccco4)oc3C)c(OC)c2)n1 [Example 124, 5-((E)-2-{3-[(4-{[2-(2-furyl)-5-methyl-1,3-oxazol-4-yl]methoxy}-3-methoxybenzyl)oxy]-1-phenyl-1H-pyrazol-4-yl}ethenyl)-3-propyl-1,2,4-oxadiazole]"
18,186 to 187,"COc1cc(COc2nn(-c3ccccc3)cc2/C=C/c2nnc(C)o2)ccc1OCc1nc(-c2ccco2)oc1C [Example 125, 2-((E)-2-{3-[(4-{[2-(2-furyl)-5-methyl-1,3-oxazol-4-yl]methoxy}-3-methoxybenzyl)oxy]-1-phenyl-1H-pyrazol-4-yl}ethenyl)-5-methyl-1,3,4-oxadiazole]"
19,183 to 184,"CCc1nnc(/C=C/c2cn(-c3ccccc3)nc2OCc2ccc(OCc3nc(-c4ccco4)oc3C)c(OC)c2)o1 [Example 126, 2-ethyl-5-((E)-2-{3-[(4-{[2-(2-furyl)-5-methyl-1,3-oxazol-4-yl]methoxy}-3-methoxybenzyl)oxy]-1-phenyl-1H-pyrazol-4-yl}ethenyl)-1,3,4-oxadiazole]"
20,165 to 166,"CCCc1nnc(/C=C/c2cn(-c3ccccc3)nc2OCc2ccc(OCc3nc(-c4ccco4)oc3C)c(OC)c2)o1 [Example 127, 2-((E)-2-{3-[(4-{[2-(2-furyl)-5-methyl-1,3-oxazol-4-yl]methoxy}-3-methoxybenzyl)oxy]-1-phenyl-1H-pyrazol-4-yl}ethenyl)-5-propyl-1,3,4-oxadiazole]"
21,156 to 157,"COc1cc(COc2nn(-c3ccccc3)cc2/C=C/[S+](C)[O-])ccc1OCc1nc(-c2ccco2)oc1C (stereo not shown) [Example 128 (E form), 2-(2-furyl)-4-({2-methoxy-4-[({4-[(E)-2-(methylsulfinyl)ethenyl]-1-phenyl-1H-pyrazol-3-yl}oxy)methyl]phenoxy}methyl)-5-methyl-1,3-oxazole]"
22,180 to 181,"COc1cc(COc2nn(-c3ccccc3)cc2/C=C\[S+](C)[O-])ccc1OCc1nc(-c2ccco2)oc1C (stereo not shown) [Example 128 (Z form), 2-(2-furyl)-4-({2-methoxy-4-[({4-[(Z)-2-(methylsulfinyl)ethenyl]-1-phenyl-1H-pyrazol-3-yl}oxy)methyl]phenoxy}methyl)-5-methyl-1,3-oxazole]"
23,152 to 153,"COc1cc(COc2nn(-c3ccccc3)cc2/C=C/S(C)(=O)=O)ccc1OCc1nc(-c2ccco2)oc1C [Example 130, 2-(2-furyl)-4-({2-methoxy-4-[({4-[(E)-2-(methylsulfonyl)ethenyl]-1-phenyl-1H-pyrazol-3-yl}oxy)methyl]phenoxy}methyl)-5-methyl-1,3-oxazole]"
24,158 to 159,"COc1cc(COc2nn(-c3ccccc3)cc2/C=C\S(C)(=O)=O)ccc1OCc1nc(-c2ccco2)oc1C [Example 131, 2-(2-furyl)-4-({2-methoxy-4-[({4-[(Z)-2-(methylsulfonyl)ethenyl]-1-phenyl-1H-pyrazol-3-yl}oxy)methyl]phenoxy}methyl)-5-methyl-1,3-oxazole]"
25,146 to 147,"CCCc1nnc(/C=C/c2cn(Cc3ccccc3)nc2OCc2ccc(OCc3nc(-c4ccco4)oc3C)c(OC)c2)o1 [Example 132, 2-((E)-2-{1-benzyl-3-[(4-{[2-(2-furyl)-5-methyl-1,3-oxazol-4-yl]methoxy}-3-methoxybenzyl)oxy]-1H-pyrazol-4-yl}ethenyl)-5-propyl-1,3,4-oxadiazole]"
26,119 to 120,"CCCc1nnc(/C=C/c2nc(-c3ccccc3)oc2COc2ccc(OCc3nc(-c4ccccc4)oc3C)cc2)o1 [Example 133, 2-{(E)-2-[5-({4-[(5-methyl-2-phenyl-1,3-oxazol-4-yl)methoxy]phenoxy}methyl)-2-phenyl-1,3-oxazol-4-yl]ethenyl}-5-propyl-1,3,4-oxadiazole]"
27,127 to 128,"CCOC(=O)/C=C/c1cc(OCc2ccc(OCc3nc(-c4ccco4)oc3C)c(OC)c2)nn1-c1ccccc1 [Example 135, ethyl (2E)-3-{3-[(4-{[2-(2-furyl)-5-methyl-1,3-oxazol-4-yl]methoxy}-3-methoxybenzyl)oxy]-1-phenyl-1H-pyrazol-5-yl}-2-propenoate]"
28,191 to 192,"COc1cc(COc2cc(/C=C/C(=O)O)n(-c3ccccc3)n2)ccc1OCc1nc(-c2ccco2)oc1C [Example 136, (2E)-3-{3-[(4-{[2-(2-furyl)-5-methyl-1,3-oxazol-4-yl]methoxy}-3-methoxybenzyl)oxy]-1-phenyl-1H-pyrazol-5-yl}-2-propenoic acid]"
